SMILES strings stand for the structures.

Data on one compound can be found in paper PMC8657459, “Rosmarinic Acid and Sodium Citrate Have a Synergistic Bacteriostatic Effect against Vibrio Species by Inhibiting Iron Uptake” (International Journal of Molecular Sciences, 2021).

In this assay the target is T1, VmFbpA (ferric ion-binding protein A) (Vibrio metschnikovii, UniProt A0A9X0R8I3).
T1 construct: gene H8Q88_11990; WP_004394209.1 without the signal peptide '[…]'; 6× His-tag-free apo VmFbpA
As to the kind of experiment: ITC of RA into apo VmFbpA (single-site model); supported by UV-vis peak shift and Fe3+ pull-down inhibition by ICP-MS (IC50 […]).

T1 sequence (A0A9X0R8I3 entry or part of it): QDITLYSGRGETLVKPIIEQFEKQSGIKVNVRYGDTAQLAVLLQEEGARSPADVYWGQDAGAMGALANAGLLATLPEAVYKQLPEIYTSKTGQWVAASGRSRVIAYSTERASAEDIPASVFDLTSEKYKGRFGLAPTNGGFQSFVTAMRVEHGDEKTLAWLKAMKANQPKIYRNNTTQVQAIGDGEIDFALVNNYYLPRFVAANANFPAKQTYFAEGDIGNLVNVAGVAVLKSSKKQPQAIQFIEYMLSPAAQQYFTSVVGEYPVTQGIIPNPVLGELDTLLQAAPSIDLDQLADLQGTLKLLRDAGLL

Broadly, the Kd is the equilibrium constant for the complex coming apart. Turning to `O=C(/C=C/c1ccc(O)c(O)c1)O[C@H](Cc1ccc(O)c(O)c1)C(=O)O` [RA, rosmarinic acid], the dissociation constant Kd stood at 8 ± 1 µM.
